The assay concerns C. albicans.

Molecules are shown by their SMILES.

`II` [elemental iodine]: the “elemental iodine concentrations required to affect microbial killing” value is on record as less than 0.01%.

Source of the values: US6592890B1, “Conveyance of anti-infective activity to wound dressings” (OxiBio, Inc., priority 1999, dated 2003).
